The results in this text go back to US8765755B2, “N-containing heterocyclic compounds” (YM Biosciences Australia Pty Ltd, priority 2007, dated 2014).

By IC50 is commonly meant the midpoint of a concentration-inhibition curve. A high value points to lower potency.

The target in one assay is T1, human JAK3 (Homo sapiens, UniProt P52333).
T1 construct: The kinase domain of human JAK3 was amplified; GST (N); made in house; host or cells: Sf9 (Spodoptera frugiperda) insect cells, baculovirus
The assay is described as follows: JAK3 kinase enzyme assay (Alphascreen). Type of assay: biochemical. Particulars: 80 or 625 um ATP. On the procedure: (§1) For screening purposes, compounds (in 100% DMSO) were warmed at 37 degrees for at least 20 minutes before use. A […] stock was initially made in assay buffer, where the final concentration of DMSO was 0.3%. The stocks were then diluted in 384 well Optiplates (Packard) where the final concentration of the compound was 5 μM.
The kinase domain of human JAK3 was amplified from U937mRNA using the polymerase chain reaction with the following primers: […]
The JAK3 PCR products were cloned into the pDest20 destination expression vector (Gibco). The JAK3 plasmid was then transformed into competent DH10Bac cells (Gibco), and the recombinant baculovirus was prepared via Sf9 insect cell transfection.
(§2) Baculovirus preparations from each of the JAK family members were infected into one litre of Sf9 (Spodoptera frugiperda) cells (Invitrogen) grown in SF900II serum free medium (Invitrogen) to a cell density of approximately 2×10^6 cells/ml. Cells were infected with virus at a cell culture to virus stock ratio of 20:1. Cells were harvested and lysed 48 hours post infection. The GST-tagged JAK kinase domains were purified by affinity chromatography on a GSH agarose column (Scientifix).
(§3) Kinase assays were performed in 384 well Optiplates (Packard) using an Alphascreen Protein Tyrosine KinaseP100 detection kit The compounds were pre-incubated with affinity purified PTK domain in the presence of phosphotyrosine assay buffer (10 mM HEPES, pH 7.5, 100 mM MgCl2, 25 mM NaCl, 200 mM sodium vanadate and 0.1% Tween 20) for 20 minutes. The compounds were then incubated with substrate in the presence of either 80 or 625 um ATP for 60 or 90 minutes. The substrate used was either susbtrate-1 with the sequence biotin-EGPWLEEEEEAYGWMDF-NH2 [SEQ. ID. NO. 13] (final concentration 111 μM) or susbtrate-2 substrate with the sequence biotin-EQEDEPEGDYFEWLEPE (final concentration 133 μM). Alphascreen phosphotyrosine acceptor beads followed by streptavidin donor beads at a concentration of 1/100 in stop buffer were added to each well under subdued light and incubated for 2-3 hours. The Alphascreen plates were read on a Packard Fusion Alpha instrument.
In general terms: In Alpha technology, singlet oxygen from a donor bead excites a nearby acceptor bead.

The subject of the next assay is CTLL2. Put plainly: Cellular screening, CTLL2 cells (Alamar Blue). Particulars: Mus musculus, CTLL-2, 40 hr incubation. Type of assay: cell-based. Here is the method:
(§4) For screening purposes, compounds were diluted in 96 well plates at a concentration of 20 μM. Plates were warmed at 37° C. for 30 minutes before the assay was performed.
(§5) Cell suspensions were prepared by harvesting cells from culture. (the cells used in this test were in late log phase growth with high viability.) Cells were diluted in the appropriate growth medium, as described above, to 1.1× final concentration (from 50,000 cell/mL to 200,000 cell/mL, depending on cell line).
(§6) Compounds to be tested were added (10 μL, 10× final concentration) to a flat bottomed 96-well plate. The cellular suspension (90 μL per well) was then added, and the plate incubated for 40 hr at 37° C., 5% CO2. Alamar Blue 10 μL per well was added and the plates returned to the incubator for a further 4-6 hours. The plates were then read at 544 nm.
(Resazurin is reduced to fluorescent resorufin, in cell work by metabolically active cells.)

In the next assay the test system is BafT_J2. Put plainly: Cellular screening, BaF3 TEL:JAK2 cells (Alamar Blue). Particulars: Mus musculus, 40 hr incubation. Type of assay: cell-based. Here is the method: as §4
(§7) The coding region encompassing nucleotides 1-487 of TEL was amplified by PCR using the oligonucleotides 5TEL (5′-GGAGGATCCTGATCTCTCTCGCTGTGAGAC-3′) [SEQ ID NO 14] and 3TEL (5′-AGGC GTCGACTTCTTCTTCATGGTTCTG-3′) [SEQ ID NO 15] and U937 mRNA as a template. A BamHI restriction site was incorporated into the 5TEL primer, and a Sal I restriction site was incorporated into the 3TEL primer. The regions encompassing the kinase domain of JAK2 (nucleotides 2994-3914; JAK2F 5′-ACGC GTCGACGGTGCCTTTGAAGACCGGGAT-3′ [SEQ ID NO 16]; JAK2R 5′-ATAGTTTAGCGGCCGCTCAGAATGAAGGTCATTT-3′) [SEQ ID NO 17] and JAK3 (nucleotides 2520-3469; JAK3F 5′-GAAGTCGACTATGCCTGCCAAGACCCCACGATCTT-3′) [SEQ ID NO 18] were generated by PCR using Taq DNA polymerase (Gibco/BRL) and U937 mRNA as a template. A Sal I restriction site was incorporated into the forward primer of JAK2 and JAK3, a Not I site was incorporated into the JAK2 reverse primer and a Xba I site was added to the reverse primer of JAK3.
A TEL/Jak2 fusion was generated by digestion of the TELPCR product with BamH I/Sal I restriction enzymes, digestion of the JAK2 PCR product with Sal I/Not I restriction enzymes, followed by ligation and subcloning of the ligation product into the mammalian expression Vector pTRE 2 (Clontech), which was prepared by digestion with BamH I-Not I restriction enzymes, to give the TEL/Jak2 fusion plasmid pTELJAK2.
(§8) The growth factor dependant myelomonocytic cell line BaF3 bearing the pTET-off plasmid (Clontech) was transfected with either pTELJAK2 or pTELJAK3, and the transfected cells were selected for growth-factor independent cell growth. The BaF3 wild-type cells were cultured in DMEM containing 10% FCS, 10% WEHI 3B conditioned medium. The BaF3 TELJAK cells ([…]) were cultured in DMEM 10% Tet-System Approved FBS (without WEHI 3B conditioned medium).
as §5, §6

The subject of the next assay is BAF3wt. Put plainly: Cellular screening, BaF3 wild-type cells (Alamar Blue). Type of assay: cell-based. Particulars: Mus musculus, 40 hr incubation. Here is the method:
as §4, §8, §5, §6

The next assay concerns the target T2, human JAK2 (Homo sapiens, UniProt O60674).
T2 construct: The kinase domain of human JAK2 was amplified; GST (N); made in house; host or cells: Sf9 (Spodoptera frugiperda) insect cells, baculovirus
The assay is described as follows: JAK2 kinase enzyme assay (Alphascreen). In kind it is biochemical. Particulars: 80 or 625 um ATP. On the procedure:
as §1
The kinase domain of human JAK2 was amplified from U937mRNA using the polymerase chain reaction with the following primers: […]
The JAK2 PCR products were cloned into the pDest20 destination vector (Gibco). The JAK2 plasmid was then transformed into competent DH10Bac cells (Gibco), and the recombinant baculovirus was prepared via Sf9 insect cell transfection.
as §2, §3

In the next assay the test system is BafT_J3. The assay is described as follows: Cellular screening, BaF3 TEL:JAK3 cells (Alamar Blue). In kind it is cell-based. Particulars: Mus musculus, 40 hr incubation. On the procedure: as §4, §7
The TEL/Jak3 fusion was prepared by ligation of the JAK3 Sal I/Not I cleaved kinase domain PCR product with the BamH I/Sal I restriction digested TEL product, followed by ligation of the ligation product into the BamH I/Not I digested pTRE2, to give the TEL/Jak3 fusion plasmid pTELJAK3.
as §8, §5, §6

Structures are written as SMILES.

T1 sequence (P52333 822-1111 limits assumed): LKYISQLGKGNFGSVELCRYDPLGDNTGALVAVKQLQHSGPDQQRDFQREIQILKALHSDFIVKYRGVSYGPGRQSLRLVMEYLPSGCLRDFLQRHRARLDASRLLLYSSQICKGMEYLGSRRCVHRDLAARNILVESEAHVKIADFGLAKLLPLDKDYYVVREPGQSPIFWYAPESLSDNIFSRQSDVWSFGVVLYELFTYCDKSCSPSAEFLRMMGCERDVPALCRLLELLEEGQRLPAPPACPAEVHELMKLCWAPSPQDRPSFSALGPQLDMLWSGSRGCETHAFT
T2 sequence (O60674 849-1124 limits assumed): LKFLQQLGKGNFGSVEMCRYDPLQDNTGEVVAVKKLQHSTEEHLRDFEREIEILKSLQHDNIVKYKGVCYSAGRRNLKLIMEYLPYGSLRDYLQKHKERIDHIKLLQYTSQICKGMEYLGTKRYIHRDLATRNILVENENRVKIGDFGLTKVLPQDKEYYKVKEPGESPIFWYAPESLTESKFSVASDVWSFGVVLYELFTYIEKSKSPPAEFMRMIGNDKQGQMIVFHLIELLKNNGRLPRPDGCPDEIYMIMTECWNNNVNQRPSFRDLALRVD

In the case of `NS(=O)(=O)c1cccc(-c2csc3cnc(Nc4ccc(OCCN5CCCC5)cc4)nc23)c1` [Compound 73, 3-(2-(4-(2-(pyrrolidin-1-yl)ethoxy)phenylamino)thieno[3,2-d]pyrimidin-7-yl)benzenesulfonamide], the IC50 against human JAK3 is less than 0.1 µM; in the assay with CTLL2, less than 5 µM; in the assay on BafT_J2, less than 1 µM; in the assay with BAF3wt, less than 1 µM; at human JAK2, less than 0.1 µM; in the assay with BafT_J3, less than 1 µM.

On to `Fc1ccc(-c2csc3cnc(Nc4ccc(OCCN5CCCC5)cc4)nc23)cc1Cl` [Compound 74, 7-(3-chloro-4-fluorophenyl)-N-(4-(2-(pyrrolidin-1-yl)ethoxy)phenyl)thieno[3,2-d]pyrimidin-2-amine], for which the IC50 on human JAK3 is less than 0.5 µM; in the assay with CTLL2, less than 5 µM; with BafT_J2, less than 1 µM; in the assay with BAF3wt, less than 5 µM; against human JAK2, less than 0.1 µM; in the assay on BafT_J3 it was less than 5 µM.

As for `c1cc(Nc2ncc3scc(-c4ccc5c(c4)OCO5)c3n2)ccc1CN1CCOCC1` [Compound 76, 7-(benzo[d][1,3]dioxol-5-yl)-N-(4-(morpholinomethyl)phenyl)thieno[3,2-d]pyrimidin-2-amine], the IC50 is less than 0.5 µM against human JAK3; less than 1 µM with CTLL2; less than 1 µM with BafT_J2; less than 1 µM in the assay with BAF3wt; less than 0.1 µM against human JAK2; less than 1 µM in the assay on BafT_J3.

As to `CC(C)(C)OC(=O)N1CC=C(c2csc3cnc(Nc4ccc(CN5CCOCC5)cc4)nc23)CC1` [Compound 79, tert-butyl 4-(2-(4-(morpholinomethyl)phenylamino)thieno[3,2-d]pyrimidin-7-yl)-5,6-dihydropyridine-1(2H)-carboxylate], the half-maximal inhibitory concentration (IC50) was less than 0.1 µM at human JAK3; less than 1 µM with CTLL2; less than 1 µM in the assay with BafT_J2; less than 5 µM in the assay with BAF3wt; less than 0.1 µM at human JAK2; less than 5 µM in the assay on BafT_J3.

Take `CC(=O)Nc1cccc(-c2csc3cnc(Nc4ccc(CN5CCOCC5)cc4)nc23)c1` [Compound 81, N-(3-(2-(4-(morpholinomethyl)phenylamino)thieno[3,2-d]pyrimidin-7-yl)phenyl)acetamide]: the concentration for half-maximal inhibition (IC50) on human JAK3 is less than 0.5 µM; with CTLL2, less than 1 µM; with BafT_J2 it was less than 1 µM; in the assay with BAF3wt, less than 1 µM; against human JAK2 it was less than 0.1 µM; in the assay with BafT_J3, less than 1 µM.

As to `CS(=O)(=O)Nc1cccc(-c2csc3cnc(Nc4ccc(CN5CCOCC5)cc4)nc23)c1` [Compound 83, N-(3-(2-(4-(morpholinomethyl)phenylamino)thieno[3,2-d]pyrimidin-7-yl)phenyl)methanesulfonamide], the 50% inhibitory concentration (IC50) at human JAK3 was less than 0.1 µM; in the assay on CTLL2 it was less than 1 µM; in the assay on BafT_J2 it was less than 1 µM; in the assay on BAF3wt it was less than 1 µM; against human JAK2, less than 0.1 µM; in the assay with BafT_J3, less than 1 µM.

In the case of `CN1CCN(c2ccc(-c3csc4cnc(Nc5ccc(CN6CCOCC6)cc5)nc34)cc2)CC1` [Compound 84, 7-(4-(4-methylpiperazin-1-yl)phenyl)-N-(4-(morpholinomethyl)phenyl)thieno[3,2-d]pyrimidin-2-amine], the IC50 is less than 0.5 µM against human JAK3; less than 1 µM in the assay on CTLL2; less than 1 µM in the assay with BafT_J2; less than 1 µM in the assay on BAF3wt; less than 0.1 µM against human JAK2; less than 1 µM in the assay on BafT_J3.

As for `COc1cc(-c2csc3cnc(Nc4ccc(CN5CCOCC5)cc4)nc23)ccc1NC(C)=O` [Compound 85, N-(2-methoxy-4-(2-(4-(morpholinomethyl)phenylamino)thieno[3,2-d]pyrimidin-7-yl)phenyl)acetamide], the IC50 on human JAK3 was less than 0.1 µM; in the assay on CTLL2, less than 1 µM; in the assay on BafT_J2, less than 1 µM; in the assay on BAF3wt, less than 1 µM; against human JAK2, less than 0.1 µM; in the assay with BafT_J3, less than 1 µM.

Take `COc1cc(Nc2ncc3scc(-c4cccc(CO)c4)c3n2)cc(OC)c1OC` [Compound 87, (3-(2-(3,4,5-trimethoxyphenylamino)thieno[3,2-d]pyrimidin-7-yl)phenyl)methanol]: the IC50 against human JAK3 was less than 0.1 µM; in the assay with CTLL2, less than 1 µM; in the assay on BafT_J2, less than 1 µM; with BAF3wt it was less than 1 µM; at human JAK2, less than 0.1 µM; in the assay on BafT_J3 it was less than 1 µM.

As to `COc1cc(Nc2ncc3scc(-c4ccc(CO)cc4)c3n2)cc(OC)c1OC` [Compound 88, (4-(2-(3,4,5-trimethoxyphenylamino)thieno[3,2-d]pyrimidin-7-yl)phenyl)methanol], the IC50 on human JAK3 was less than 0.1 µM; in the assay with CTLL2, less than 1 µM; in the assay with BafT_J2, less than 1 µM; in the assay with BAF3wt, less than 1 µM; against human JAK2, less than 0.1 µM; with BafT_J3, less than 1 µM.

`OCc1cccc(-c2csc3cnc(Nc4ccc(N5CCOCC5)cc4)nc23)c1` [Compound 89, (3-(2-(4-morpholinophenylamino)thieno[3,2-d]pyrimidin-7-yl)phenyl)methanol]: the IC50 against human JAK3 is less than 0.1 µM; in the assay on CTLL2, less than 1 µM; in the assay with BafT_J2 it was less than 1 µM; in the assay with BAF3wt it was less than 1 µM; at human JAK2, less than 0.1 µM; in the assay with BafT_J3, less than 1 µM.

Take `OCc1ccc(-c2csc3cnc(Nc4ccc(N5CCOCC5)cc4)nc23)cc1` [Compound 90, (4-(2-(4-morpholinophenylamino)thieno[3,2-d]pyrimidin-7-yl)phenyl)methanol]: the IC50 against human JAK3 is less than 0.1 µM; in the assay with CTLL2, less than 1 µM; in the assay on BafT_J2, less than 1 µM; in the assay on BAF3wt, less than 1 µM; against human JAK2, less than 0.1 µM; in the assay with BafT_J3, less than 1 µM.
